Laboratory results from PubChem BioAssay AID330 (DTP/NCI, 2004).
Several values for one entry are separate records, joined by “and”; a condition that tells them apart may be missing. Identical values can stand only once. Inconclusive results and toxic doses are left out. The calls were made as follows: active = survival T/C of 150% or more; inactive = T/C below 125% in these data.

Tested on: P388 leukemia ip, CD2F1 mice, survival T/C
Assay: NCI In Vivo Anticancer Drug Screen. Data for tumor model P388 Leukemia (intraperitoneal) in CD2F1 (CDF1) mice
Settings: endpoint: median survival time, higher = longer survival
Procedure, shortened: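 Mice carrying the transplanted tumor received test compound or vehicle. Survival was recorded in each group, and the value is the treated-group measurement divided by that of the vehicle-treated control group.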

[1] = dose: 60.0 mg/kg/injection, schedule: Q01DX005 (ip), vehicle: saline with Tween-80
[2] = dose: 120.0 mg/kg/injection, schedule: Q01DX005 (ip), vehicle: saline with Tween-80
[3] = dose: 240.0 mg/kg/injection, schedule: Q01DX005 (ip), vehicle: saline with Tween-80
[4] = dose: 50.0 mg/kg/injection, schedule: Q01DX009 (ip), vehicle: saline
[5] = dose: 100.0 mg/kg/injection, schedule: Q01DX009 (ip), vehicle: saline
[6] = dose: 200.0 mg/kg/injection, schedule: Q01DX009 (ip), vehicle: saline
[7] = dose: 50.0 mg/kg/injection, schedule: Q01DX009 (ip), vehicle: saline with Tween-80
[8] = dose: 100.0 mg/kg/injection, schedule: Q01DX009 (ip), vehicle: saline with Tween-80
[9] = dose: 50.0 mg/kg/injection, schedule: Q01DX005 (ip), vehicle: Klucel (hydroxypropylcellulose) (HPC)
[10] = dose: 100.0 mg/kg/injection, schedule: Q01DX005 (ip), vehicle: Klucel (hydroxypropylcellulose) (HPC)
[11] = dose: 200.0 mg/kg/injection, schedule: Q01DX005 (ip), vehicle: Klucel (hydroxypropylcellulose) (HPC)
[12] = dose: 50.0 mg/kg/injection, schedule: Q01DX005 (ip), vehicle: saline with Tween-80
[13] = dose: 100.0 mg/kg/injection, schedule: Q01DX005 (ip), vehicle: saline with Tween-80
[14] = dose: 200.0 mg/kg/injection, schedule: Q01DX005 (ip), vehicle: saline with Tween-80
[15] = dose: 60.0 mg/kg/injection, schedule: Q01DX005 (ip), vehicle: Klucel (hydroxypropylcellulose) (HPC)
[16] = dose: 120.0 mg/kg/injection, schedule: Q01DX005 (ip), vehicle: Klucel (hydroxypropylcellulose) (HPC)
[17] = dose: 240.0 mg/kg/injection, schedule: Q01DX005 (ip), vehicle: Klucel (hydroxypropylcellulose) (HPC)
[18] = dose: 200.0 mg/kg/injection, schedule: Q01DX009 (ip), vehicle: saline with Tween-80
[19] = dose: 100.0 mg/kg/injection, schedule: Q04DX003 (ip), vehicle: saline sonified
[20] = dose: 200.0 mg/kg/injection, schedule: Q04DX003 (ip), vehicle: saline sonified

Measured: T/C

Fc1ccc(C(Nc2nncs2)Nc2nncs2)cc1F
inactive: [1] 101 % of control | [2] 101 % of control | [3] 110 % of control

COc1ccc(CC[n+]2cccc(C(=O)c3ccccc3)c2)cc1OC
inactive: dose: 12.5 mg/kg/injection, schedule: Q04DX002 (ip), vehicle: saline 97 % of control | dose: 25.0 mg/kg/injection, schedule: Q04DX002 (ip), vehicle: saline 105 % of control | dose: 50.0 mg/kg/injection, schedule: Q04DX002 (ip), vehicle: saline 101 % of control

CN(C)c1ccc(N=Nc2ccccc2)cc1
inactive: dose: 31.25 mg/kg/injection, schedule: Q01DX009 (ip), vehicle: saline with Tween-80 100 % of control | dose: 62.5 mg/kg/injection, schedule: Q01DX009 (ip), vehicle: saline with Tween-80 109 % of control

COc1cc2c(NCCCCCO)ncnc2c(OC)c1OC
inactive: [4] 105 % of control | [5] 105 % of control | [6] 102 % of control

Nc1nc2ccc(Br)cc2s1
inactive: dose: 50.0 mg/kg/injection, schedule: Q01DX009 (ip), vehicle: suspension in saline 97 % of control | [5] 86 % of control | dose: 100.0 mg/kg/injection, schedule: Q01DX009 (ip), vehicle: suspension in saline 102 % of control

O=S(=O)(C#Cc1ccccc1)C(F)(F)C(F)(F)C(F)(F)C(F)(F)F
inactive: dose: 100.0 mg/kg/injection, schedule: Q01DX001 (ip), vehicle: saline 116 % of control | dose: 200.0 mg/kg/injection, schedule: Q01DX001 (ip), vehicle: saline 115 % of control | dose: 400.0 mg/kg/injection, schedule: Q01DX001 (ip), vehicle: saline 102 % of control

COc1ncc(Br)cc1C(=O)NCCc1ccc(S(=O)(=O)NC(=O)NC2CCCCC2)cc1
inactive: [7] 99 % of control | [8] 92 % of control

CC(C)COC(=O)N(CCCl)N=O
inactive: dose: 0.62 mg/kg/injection, schedule: Q01DX009 (ip), vehicle: saline with Tween-80 100 % of control and 111 % of control | dose: 1.25 mg/kg/injection, schedule: Q01DX001 (ip), vehicle: saline with Tween-80 103 % of control | dose: 1.25 mg/kg/injection, schedule: Q01DX009 (ip), vehicle: saline with Tween-80 108 % of control and 116 % of control | dose: 2.5 mg/kg/injection, schedule: Q01DX001 (ip), vehicle: saline with Tween-80 100 % of control | dose: 2.5 mg/kg/injection, schedule: Q01DX009 (ip), vehicle: saline with Tween-80 112 % of control and 115 % of control and 120 % of control | dose: 5.0 mg/kg/injection, schedule: Q01DX001 (ip), vehicle: saline with Tween-80 100 % of control and 112 % of control | dose: 5.0 mg/kg/injection, schedule: Q01DX009 (ip), vehicle: saline with Tween-80 100 % of control and 97 % of control | dose: 10.0 mg/kg/injection, schedule: Q01DX001 (ip), vehicle: saline with Tween-80 90 % of control

COc1cc2c(cc1OC)C(c1c(Cl)cccc1Cl)=NCC2
inactive: [9] 96 % of control | [10] 105 % of control | [11] 110 % of control

NNC(=O)c1c(O)ccc2ccccc12
inactive: [12] 95 % of control | [13] 93 % of control | [14] 100 % of control

S=C1NCN(CC2CC2)CN1
inactive: [1] 97 % of control | [2] 96 % of control | [3] 94 % of control

O=C(Nc1ccc(Br)cc1)ON1CCCCC1
inactive: [4] 91 % of control | [5] 87 % of control | [6] 104 % of control

CCC(=O)N1C(=O)C(C)C23c4cccc([N+](=O)[O-])c4C(=O)N2CCCN13 (configuration not stated)
inactive: [15] 100 % of control | [16] 97 % of control | [17] 93 % of control

CCc1ccc(S(=O)(=O)O)cc1
inactive: [7] 100 % of control | [8] 94 % of control | [18] 98 % of control

CCOC(=O)COc1ccc(Cc2ccc3c(c2)OCO3)cc1C
inactive: [12] 97 % of control | [13] 97 % of control | [14] 93 % of control

Cc1cc(Cl)ccc1NC(=O)/C(Cl)=C1/Sc2ccccc2NC1=O
inactive: dose: 100.0 mg/kg/injection, schedule: Q01DX001 (ip), vehicle: saline with Tween-80 105 % of control | dose: 200.0 mg/kg/injection, schedule: Q01DX001 (ip), vehicle: saline with Tween-80 97 % of control | dose: 400.0 mg/kg/injection, schedule: Q01DX001 (ip), vehicle: saline with Tween-80 97 % of control

O=c1c2sc3ccccc3c2ncn1C1CCCCC1
inactive: [9] 98 % of control | [10] 100 % of control | [11] 93 % of control

O=c1[nH]cnc2[nH]ncc12
inactive: dose: 20.0 mg/kg/injection, schedule: Q01DX005 (ip), vehicle: saline with Tween-80 104 % of control | dose: 40.0 mg/kg/injection, schedule: Q01DX005 (ip), vehicle: saline with Tween-80 110 % of control | dose: 50.0 mg/kg/injection, schedule: Q01DX009 (ip), vehicle: saline sonified 95 % of control | [7] 95 % of control | dose: 50.0 mg/kg/injection, schedule: Q04DX003 (ip), vehicle: saline sonified 109 % of control | dose: 50.0 mg/kg/injection, schedule: Q04DX003 (ip), vehicle: saline with Tween-80 90 % of control | dose: 80.0 mg/kg/injection, schedule: Q01DX005 (ip), vehicle: saline with Tween-80 106 % of control | dose: 100.0 mg/kg/injection, schedule: Q01DX009 (ip), vehicle: saline sonified 100 % of control | [8] 95 % of control | [19] 95 % of control | dose: 100.0 mg/kg/injection, schedule: Q04DX003 (ip), vehicle: saline with Tween-80 95 % of control | dose: 160.0 mg/kg/injection, schedule: Q01DX005 (ip), vehicle: saline with Tween-80 104 % of control | dose: 200.0 mg/kg/injection, schedule: Q01DX009 (ip), vehicle: saline sonified 100 % of control | [20] 113 % of control | dose: 200.0 mg/kg/injection, schedule: Q04DX003 (ip), vehicle: saline with Tween-80 104 % of control

O=C([O-])CN(CCN(CC(=O)[O-])CC(=O)O)CC(=O)O.[Fe+5].[Na+]
inactive: [7] 91 % of control | [8] 91 % of control | [19] 86 % of control | [18] 91 % of control | [20] 90 % of control

CC(O)(c1ccccc1)C(CCl)N1CCCCC1 (configuration not stated)
inactive: [7] 100 % of control | [8] 105 % of control | [18] 105 % of control

C=CC(COC(=O)C(Cl)(Cl)Cl)NC(=O)C(Cl)(Cl)Cl (configuration not stated)
inactive: dose: 6.25 mg/kg/injection, schedule: Q01DX005 (ip), vehicle: distilled water + Tween-80 100 % of control | dose: 12.5 mg/kg/injection, schedule: Q01DX005 (ip), vehicle: distilled water + Tween-80 90 % of control | dose: 25.0 mg/kg/injection, schedule: Q01DX005 (ip), vehicle: distilled water + Tween-80 100 % of control | dose: 50.0 mg/kg/injection, schedule: Q01DX005 (ip), vehicle: distilled water + Tween-80 100 % of control | dose: 100.0 mg/kg/injection, schedule: Q01DX005 (ip), vehicle: distilled water + Tween-80 95 % of control

CC[N+](C)(CC)CCNC(=O)Nc1ccc(-c2ccc(NC(=O)NCC[N+](C)(CC)CC)c(OC)c2)cc1OC
inactive: dose: 6.25 mg/kg/injection, schedule: Q01DX009 (ip), vehicle: saline 98 % of control | dose: 12.5 mg/kg/injection, schedule: Q01DX009 (ip), vehicle: saline 96 % of control

CC(=O)Oc1ccccc1C(=O)OCC(=O)c1ccc2c(c1)Nc1ccccc1S2
inactive: dose: 1.56 mg/kg/injection, schedule: Q01DX001 (ip), vehicle: Klucel (hydroxypropylcellulose) (HPC) 93 % of control | dose: 3.13 mg/kg/injection, schedule: Q01DX001 (ip), vehicle: Klucel (hydroxypropylcellulose) (HPC) 95 % of control | dose: 6.25 mg/kg/injection, schedule: Q01DX001 (ip), vehicle: Klucel (hydroxypropylcellulose) (HPC) 90 % of control | dose: 50.0 mg/kg/injection, schedule: Q01DX001 (ip), vehicle: Klucel (hydroxypropylcellulose) (HPC) 87 % of control | dose: 200.0 mg/kg/injection, schedule: Q01DX001 (ip), vehicle: Klucel (hydroxypropylcellulose) (HPC) 94 % of control

CC(=O)[C-](I)C(C)=O.CC(=O)[C-](I)C(C)=O.CC(=O)[C-](I)C(C)=O.[Ru+3]
inactive: [15] 106 % of control | [16] 106 % of control | [17] 115 % of control
